Residues, ends and D or L forms follow the SMILES beside them. *: point of attachment. Bz = O=C(c1ccccc1)*
Each compound was assayed against T1, Secreted cathepsin L 1 (Fasciola hepatica, UniProt Q7JNQ9) (assay: Cathepsin L Enzyme Assay).
T1 sequence (Q7JNQ9 whole entry): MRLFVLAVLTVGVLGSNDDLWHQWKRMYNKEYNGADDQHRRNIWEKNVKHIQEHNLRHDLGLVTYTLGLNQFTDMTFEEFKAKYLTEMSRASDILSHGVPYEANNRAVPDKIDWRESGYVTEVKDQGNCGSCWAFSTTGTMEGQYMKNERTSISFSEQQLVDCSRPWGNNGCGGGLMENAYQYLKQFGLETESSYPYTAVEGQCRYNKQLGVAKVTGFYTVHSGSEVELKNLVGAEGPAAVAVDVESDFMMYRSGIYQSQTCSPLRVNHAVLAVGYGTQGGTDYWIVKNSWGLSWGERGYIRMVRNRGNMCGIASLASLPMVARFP
Method: The protease was activated by the addition of dithiothreitol, ethylenediaminetetraacetic acid (EDTA), and sodium acetate followed by incubation at 37°C for 2 h. Proteinase activity was measured fluorometrically using Z-Phe-Arg-NHMec as substrate. The substrate was stored as a 1 mM stock solution in dimethyl sulfoxide (DMSO). Assays were carried out using a final concentration of 10 μM substrate in 0.1 M sodium acetate containing 0.1 M dithiothreitol and […]. The enzyme and inhibitor were incubated together for 15 min at 37°C, at which stage the substrate was added. The mixture was incubated at 37°C for 30 min. The reaction was stopped by the addition of 150 μL of a 10% acetic acid solution. The amount of 7-amino-4-methylcoumarin (-NHMec) released was measured using a PerkinElmer fluorescence spectrophotometer with excitation set at 370 nm and emission at 440 nm.

Structure (SMILES)	IC50 [µM]
CC(C)C[C@H](NC(=O)c1cc(F)ccc1F)C(=O)NCC#N [N-2,5-difluorobenzoyl-L-leucine-glycine nitrile (24)]	3.1
CC(C)C[C@H](NC(=O)c1ccccc1C(F)(F)F)C(=O)NCC#N [N-2-trifluoromethylbenzoyl-L-leucine-glycine nitrile (34)]	4.1
CC(C)C[C@H](NC(=O)c1cc(F)c(F)cc1F)C(=O)NCC#N [N-2,4,5-trifluorobenzoyl-L-leucine-glycine nitrile]	4.5
C[C@H](NC(=O)c1c(F)c(F)c(F)c(F)c1F)C(=O)NCC#N [N-pentafluorobenzoyl-L-alanine-glycine nitrile (16)]	68.3
CC(C)C[C@H](NC(=O)c1c(F)ccc(F)c1F)C(=O)NCC#N [N-2,3,6-trifluorobenzoyl-L-leucine-glycine nitrile (28)]	6
CC(C)C[C@H](NC(=O)c1cc(F)cc(F)c1)C(=O)NCC#N [N-3,5-difluorobenzoyl-L-leucine-glycine nitrile (27)]	3
CC(C)C[C@H](NC(=O)c1cc(F)c(F)c(F)c1)C(=O)NCC#N [N-3,4,5-trifluorobenzoyl-L-leucine-glycine nitrile]	3.4
CC(C)C[C@H](NC(=O)c1ccc(F)c(F)c1)C(=O)NCC#N [N-3,4-difluorobenzoyl-L-leucine-glycine nitrile (26)]	3.1
CC(C)C[C@H](NC(=O)c1ccccc1)C(=O)NCC(=O)O [N-benzoyl-L-leucine-glycine (37)] (Bz-Leu-Gly-OH)	10
CC(C)C[C@H](NC(=O)c1cc(F)c(F)c(F)c1F)C(=O)NCC#N [N-2,3,4,5-tetrafluorobenzoyl-L-leucine-glycine nitrile (32)]	3.4
CC(C)C[C@H](NC(=O)c1cccc(C(F)(F)F)c1)C(=O)NCC#N [N-3-trifluoromethylbenzoyl-L-leucine-glycine nitrile (35)]	9.1
CC(C)C[C@H](NC(=O)c1c(F)c(F)c(F)c(F)c1F)C(=O)NCC#N [N-2,3,4,5,6-pentafluorobenzoyl-L-leucine-glycine nitrile (33)]	4.4
CC(C)C[C@H](NC(=O)c1ccc(F)cc1F)C(=O)NCC#N [N-2,4-difluorobenzoyl-L-leucine-glycine nitrile (23)]	5.5
CC(C)C[C@H](NC(=O)c1ccc(F)c(F)c1F)C(=O)NCC#N [N-2,3,4-trifluorobenzoyl-L-leucine-glycine nitrile (29)]	4.1
CC(C)C[C@H](NC(=O)c1c(F)cccc1F)C(=O)NCC#N [N-2,6-difluorobenzoyl-L-leucine-glycine nitrile (25)]	3.7
C[C@H](NC(=O)c1ccccc1F)C(=O)NCC#N [N-2-fluorobenzoyl-L-alanine-glycine nitrile (15)]	87.6
CC(C)C[C@H](NC(=O)c1ccc(C(F)(F)F)cc1)C(=O)NCC#N [N-4-trifluoromethylbenzoyl-L-leucine-glycine nitrile (36)]	3.2
C[C@H](NC(=O)c1c(F)c(F)c(F)c(F)c1F)C(=O)NCCC#N [N-pentafluorobenzoyl-L-alanine-β-alanine nitrile (20)]	> 100
C[C@H](NC(=O)c1ccccc1F)C(=O)NCCC#N [N-2-fluorobenzoyl-L-alanine-β-alanine nitrile (19)]	> 100

From BindingDB's records for doi:10.3109/14756360902888184 (Dublin City University, 2010)
